Values after ≈ are worked out from the molar mass of the structure shown.
How the values were obtained:
Type in all cases: functional
[1] = Antiinflammatory activity against heat-induced albumin denaturation at […] preincubated for 15 mins before heat induction by UV-vis spectrophotometer analysis
Aspergillus flavus [2] = assay: Antimicrobial activity against Aspergillus flavus MTCC 873
Aspergillus niger [3] = assay: Antimicrobial activity against Aspergillus niger MTCC 281
Shigella flexneri [4] = assay: Antimicrobial activity against Shigella flexneri MTCC 1457
Escherichia coli [5] = assay: Antimicrobial activity against Escherichia coli MTCC 724
Klebsiella pneumoniae [6] = assay: Antimicrobial activity against Klebsiella pneumoniae MTCC 3384
Staphylococcus aureus [7] = assay: Antimicrobial activity against Staphylococcus aureus MTCC 96
Bacillus cereus [8] = assay: Antimicrobial activity against Bacillus cereus MTCC 8372
Aspergillus niger [9] = assay: Antimicrobial activity against Aspergillus niger MTCC 281 at 50 ug/ml after 24 hrs by agar disc diffusion method; conditions: MTCC 281, 24 h, read-out: DIZ
Aspergillus niger [10] = assay: Antimicrobial activity against Aspergillus niger MTCC 281 at 100 ug/ml after 24 hrs by agar disc diffusion method; conditions: MTCC 281, 24 h, read-out: DIZ
Aspergillus flavus [11] = assay: Antimicrobial activity against Aspergillus flavus MTCC 873 at 100 ug/ml after 24 hrs by agar disc diffusion method; conditions: MTCC 873, 24 h, read-out: DIZ
Aspergillus flavus [12] = assay: Antimicrobial activity against Aspergillus flavus MTCC 873 at 50 ug/ml after 24 hrs by agar disc diffusion method; conditions: MTCC 873, 24 h, read-out: DIZ
Shigella flexneri [13] = assay: Antimicrobial activity against Shigella flexneri MTCC 1457 at 100 ug/ml after 24 hrs by agar disc diffusion method; conditions: MTCC 1457, 24 h, read-out: DIZ
Shigella flexneri [14] = assay: Antimicrobial activity against Shigella flexneri MTCC 1457 at 50 ug/ml after 24 hrs by agar disc diffusion method; conditions: MTCC 1457, 24 h, read-out: DIZ
Klebsiella pneumoniae [15] = assay: Antimicrobial activity against Klebsiella pneumoniae MTCC 3384 at 100 ug/ml after 24 hrs by agar disc diffusion method; conditions: MTCC 3384, 24 h, read-out: DIZ
Klebsiella pneumoniae [16] = assay: Antimicrobial activity against Klebsiella pneumoniae MTCC 3384 at 50 ug/ml after 24 hrs by agar disc diffusion method; conditions: MTCC 3384, 24 h, read-out: DIZ
Escherichia coli [17] = assay: Antimicrobial activity against Escherichia coli MTCC 724 at 100 ug/ml after 24 hrs by agar disc diffusion method; conditions: MTCC 724, 24 h, read-out: DIZ
Escherichia coli [18] = assay: Antimicrobial activity against Escherichia coli MTCC 724 at 50 ug/ml after 24 hrs by agar disc diffusion method; conditions: MTCC 724, 24 h, read-out: DIZ
Staphylococcus aureus [19] = assay: Antimicrobial activity against Staphylococcus aureus MTCC 96 at 100 ug/ml after 24 hrs by agar disc diffusion method; conditions: MTCC 96, 24 h, read-out: DIZ
Staphylococcus aureus [20] = assay: Antimicrobial activity against Staphylococcus aureus MTCC 96 at 50 ug/ml after 24 hrs by agar disc diffusion method; conditions: MTCC 96, 24 h, read-out: DIZ
Bacillus cereus [21] = assay: Antimicrobial activity against Bacillus cereus MTCC 8372 at 100 ug/ml after 24 hrs by agar disc diffusion method; conditions: MTCC 8372, 24 h, read-out: DIZ
Bacillus cereus [22] = assay: Antimicrobial activity against Bacillus cereus MTCC 8372 at 50 ug/ml after 24 hrs by agar disc diffusion method; conditions: MTCC 8372, 24 h, read-out: DIZ
[23] = Antioxidant activity against ferric chloride-induced lipid peroxidation using egg lecithin at 50 ug/ml after 1 hr
[24] = Antioxidant activity against ferric chloride-induced lipid peroxidation using egg lecithin at 100 ug/ml after 1 hr
[25] = Antioxidant activity against ferric chloride-induced lipid peroxidation using egg lecithin at 10 ug/ml after 1 hr
[26] = Antioxidant activity assessed as reducing power of ferric ion at 50 ug/ml after 20 mins; design: scale not given: the % may be the effect or the level left
[27] = Antioxidant activity assessed as reducing power of ferric ion at 100 ug/ml after 20 mins; design: scale not given: the % may be the effect or the level left
[28] = Antioxidant activity assessed as reducing power of ferric ion at 10 ug/ml after 20 mins; design: scale not given: the % may be the effect or the level left
[29] = tested on: Radical scavenging activity; assay: Antioxidant activity assessed as DPPH free radical scavenging activity at 50 ug/ml after 20 mins
[30] = tested on: Radical scavenging activity; assay: Antioxidant activity assessed as DPPH free radical scavenging activity at 100 ug/ml after 20 mins
[31] = tested on: Radical scavenging activity; assay: Antioxidant activity assessed as DPPH free radical scavenging activity at 10 ug/ml after 20 mins

Compound | inhibition [1] | MIC (Aspergillus flavus [2]) | MIC (Aspergillus niger [3]) | MIC (Shigella flexneri [4]) | MIC (Escherichia coli [5]) | MIC (Klebsiella pneumoniae [6]) | MIC (Staphylococcus aureus [7]) | MIC (Bacillus cereus [8]) | zone of inhibition at 50 µg/mL (Aspergillus niger [9]) | zone of inhibition at 100 µg/mL (Aspergillus niger [10]) | zone of inhibition at 100 µg/mL (Aspergillus flavus [11]) | zone of inhibition at 50 µg/mL (Aspergillus flavus [12]) | zone of inhibition at 100 µg/mL (Shigella flexneri [13]) | zone of inhibition at 50 µg/mL (Shigella flexneri [14]) | zone of inhibition at 100 µg/mL (Klebsiella pneumoniae [15]) | zone of inhibition at 50 µg/mL (Klebsiella pneumoniae [16]) | zone of inhibition at 100 µg/mL (Escherichia coli [17]) | zone of inhibition at 50 µg/mL (Escherichia coli [18]) | zone of inhibition at 100 µg/mL (Staphylococcus aureus [19]) | zone of inhibition at 50 µg/mL (Staphylococcus aureus [20]) | also measured
COc1ccc(C2=NN(c3ccccc3)C(/C(N)=N/O)C2)cc1 (stereo not given) | 23.8% | 30 µg/mL (≈ 96.7 µM) | 15 µg/mL (≈ 48.3 µM) | 25 µg/mL (≈ 80.6 µM) | 55 µg/mL (≈ 177 µM) | 25 µg/mL (≈ 80.6 µM) | 50 µg/mL (≈ 161 µM) | 35 µg/mL (≈ 113 µM) | 10 mm | 12 mm | 10 mm | 5 mm | 10 mm | 6 mm | 9 mm | 6 mm | 8 mm | 3 mm | 12 mm | 2 mm | zone of inhibition at 100 µg/mL (Bacillus cereus [21]): 16 mm; zone of inhibition at 50 µg/mL (Bacillus cereus [22]): 4 mm; inhibition [23]: 16%; inhibition [24]: 14%; inhibition [25]: 10%; Activity [26]: 22%; Activity [27]: 62%; Activity [28]: 10%; Activity [29]: 33%; Activity [30]: 55%; Activity [31]: 18%
Oc1ccc(C2=NN(c3ccccc3)C(c3noc(-c4ccc(Cl)cc4)n3)C2)cc1 (stereo not given) | 74.6% | 15 µg/mL (≈ 36 µM) | 10 µg/mL (≈ 24 µM) | 20 µg/mL (≈ 48 µM) | 20 µg/mL (≈ 48 µM) | 15 µg/mL (≈ 36 µM) | 25 µg/mL (≈ 60 µM) | 20 µg/mL (≈ 48 µM) | 12 mm | 18 mm | 18 mm | 10 mm | 18 mm | 8 mm | 12 mm | 10 mm | 14 mm | 8 mm | 10 mm | 6 mm | zone of inhibition at 100 µg/mL (Bacillus cereus [21]): 10 mm; zone of inhibition at 50 µg/mL (Bacillus cereus [22]): 8 mm; inhibition [23]: 61%; inhibition [24]: 80%; inhibition [25]: 40%; Activity [26]: 26%; Activity [27]: 76%; Activity [28]: 14%; Activity [29]: 51%; Activity [30]: 70%; Activity [31]: 30%
Clc1ccc(C2=NN(c3ccccc3)C(c3noc(-c4ccccc4)n3)C2)cc1 (stereo not given) | 60% | 10 µg/mL (≈ 24.9 µM) | 15 µg/mL (≈ 37.4 µM) | 25 µg/mL (≈ 62.4 µM) | 45 µg/mL (≈ 112 µM) | 25 µg/mL (≈ 62.4 µM) | 50 µg/mL (≈ 125 µM) | 30 µg/mL (≈ 74.8 µM) | 9 mm | 18 mm | 18 mm | 12 mm | 8 mm | 6 mm | 8 mm | 6 mm | 10 mm | 4 mm | 11 mm | 3 mm | zone of inhibition at 100 µg/mL (Bacillus cereus [21]): 8 mm; zone of inhibition at 50 µg/mL (Bacillus cereus [22]): 5 mm; inhibition [23]: 44%; inhibition [24]: 71%; inhibition [25]: 31%; Activity [26]: 26%; Activity [27]: 62%; Activity [28]: 13%; Activity [29]: 40%; Activity [30]: 68%; Activity [31]: 23%
COc1cc(-c2nc(C3CC(c4ccc(O)cc4)=NN3c3ccccc3)no2)cc(OC)c1OC (stereo not given) | 59.3% | 10 µg/mL (≈ 21.2 µM) | 5 µg/mL (≈ 10.6 µM) | 10 µg/mL (≈ 21.2 µM) | 15 µg/mL (≈ 31.7 µM) | 10 µg/mL (≈ 21.2 µM) | 15 µg/mL (≈ 31.7 µM) | 10 µg/mL (≈ 21.2 µM) | 18 mm | 30 mm | 26 mm | 14 mm | 22 mm | 14 mm | 18 mm | 12 mm | 16 mm | 10 mm | 18 mm | 10 mm | zone of inhibition at 100 µg/mL (Bacillus cereus [21]): 18 mm; zone of inhibition at 50 µg/mL (Bacillus cereus [22]): 12 mm; inhibition [23]: 62%; inhibition [24]: 87%; inhibition [25]: 42%; Activity [26]: 26%; Activity [27]: 76%; Activity [28]: 16%; Activity [29]: 63%; Activity [30]: 91%; Activity [31]: 34%
COc1ccc(C2=NN(c3ccccc3)C(c3noc(-c4ccc(Cl)cc4)n3)C2)cc1 (stereo not given) | 57.5% | 10 µg/mL (≈ 23.2 µM) | 10 µg/mL (≈ 23.2 µM) | 25 µg/mL (≈ 58 µM) | 25 µg/mL (≈ 58 µM) | 25 µg/mL (≈ 58 µM) | 30 µg/mL (≈ 69.6 µM) | 40 µg/mL (≈ 92.8 µM) | 12 mm | 20 mm | 18 mm | 12 mm | 8 mm | 8 mm | 10 mm | 7 mm | 10 mm | 8 mm | 12 mm | 5 mm | zone of inhibition at 100 µg/mL (Bacillus cereus [21]): 13 mm; zone of inhibition at 50 µg/mL (Bacillus cereus [22]): 4 mm; inhibition [23]: 48%; inhibition [24]: 70%; inhibition [25]: 34%; Activity [26]: 23%; Activity [27]: 58%; Activity [28]: 12%; Activity [29]: 52%; Activity [30]: 72%; Activity [31]: 22%

Reference: ChEMBL document CHEMBL2406981, “Novel pyrazoline amidoxime and their 1,2,4-oxadiazole analogues: synthesis and pharmacological screening” (Bioorg Med Chem Lett, 2013)
